The target in series [1] is T1, recombinant full-length HSET (Homo sapiens, UniProt Q9BW19).
T1 construct: 5 nM full-length human N-terminal His-tag HSET; His-tag (N)
T1 sequence (Q9BW19 1-673): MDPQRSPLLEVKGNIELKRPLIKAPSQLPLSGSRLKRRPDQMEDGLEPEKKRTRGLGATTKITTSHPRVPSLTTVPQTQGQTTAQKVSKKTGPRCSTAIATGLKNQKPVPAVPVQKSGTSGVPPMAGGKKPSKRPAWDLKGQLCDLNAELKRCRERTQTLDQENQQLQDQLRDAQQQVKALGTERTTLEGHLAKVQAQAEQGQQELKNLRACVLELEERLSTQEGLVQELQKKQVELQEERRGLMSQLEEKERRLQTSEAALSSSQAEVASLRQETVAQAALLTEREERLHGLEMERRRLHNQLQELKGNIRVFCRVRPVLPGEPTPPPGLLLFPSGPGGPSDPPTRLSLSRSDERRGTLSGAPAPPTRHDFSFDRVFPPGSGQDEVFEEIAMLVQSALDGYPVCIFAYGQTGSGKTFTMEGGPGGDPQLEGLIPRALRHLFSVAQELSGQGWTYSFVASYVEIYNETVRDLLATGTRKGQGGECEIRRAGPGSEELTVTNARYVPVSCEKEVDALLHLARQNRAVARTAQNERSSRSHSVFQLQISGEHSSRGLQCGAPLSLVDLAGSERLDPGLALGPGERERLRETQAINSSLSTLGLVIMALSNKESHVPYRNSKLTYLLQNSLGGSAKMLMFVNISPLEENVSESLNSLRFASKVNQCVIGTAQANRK
Description: ADP-Glo HSET assay (3 μM ATP), microtubule-stimulated ATPase. Type of series: biochemical. The settings on record: for IC50: preformed microtubules, 3 μM ATP, read-out: HSET ADP-Glo IC50. In outline:
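His-tagged full-length HSET (5 nM) or GST-Eg5 motor domain (4 nM), with 70 μg/mL paclitaxel-stabilised microtubules in HEPES pH 6.8 buffer, was preincubated with compound for 10 min. ATP was then added (3 or 500 μM for HSET, 4.8 μM for Eg5), followed by 80 min at 25 °C and ADP-Glo luminescence. IC50 was fitted with a four-parameter logistic.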
On the technique in general: ADP-Glo first removes unused ATP, then detects ADP through luciferase.

The subject of series [2] is centrosome-amplified (4NCA) DLD1 cells. Description: Multipolar spindle assay (4NCA cell line). The class given is cell-based, human. Particulars: for increase in mitotic spindle multipolarity (4NCA): centrosome-amplified (4NCA) DLD1 cell line. An excerpt: (§1) The cellular models consisted of chromosomally stable human colon cancer DLD1 diploid (2N) and tetraploid (4N) cells, along with tetraploid centrosome -amplified (4NCA) DLD1 cells and DLD1 HSET knockout (KO) cells. DLD1 2N and 4N cells were generated and characterized as previously described.[27],[41],[42] In order to generate 4NCA cells, we used dihydro-cytochalasin B (DCB) to transiently block cytokinesis and induce tetraploidisation and centrosome amplification in DLD1 cells. Centrosome amplification in 4NCA cells is transient and therefore they were generated from 2N cells for each run of the assay.[27] The DLD1 HSET KO cells were knockout clones generated by CRISPR and validated by sequencing to have a homozygous deletion in the KIFC1 gene.
(§2) Inhibition of HSET-mediated clustering was measured using a phenotypic assay measuring the formation of multipolar metaphase spindles in DLD1 cells with (4NCA) or without (4N) centrosome amplification. 4NCA cells were generated by treating 2N DLD1 cells with 2 μΜ DCB for 24 h, washed, and released in growth media for 24 h. 4N and 4NCA DLD1 cells were plated in 96-well ibidi μ-Clear plates (IB-89626, ibidi) with a no. 1.5 polymer coverslip bottom with optimal imaging properties. To enrich the mitotic population, cells were first treated for 3.5 h with 8 μM pro-TAME (I-440-01M, R&D system), an inhibitor of APC/C that transiently arrests cells in metaphase without affecting the structure of the spindle. Following the initial arrest, cells were treated with HSET compounds in the presence of 8 μM MG-132 (S2619, SelleckChem), a proteasome inhibitor that helps to maintain the metaphase arrest, where the number of spindle poles/cell can be optimally quantified by an automated segmentation analysis.
(§3) Cells were then fixed in methanol and stained for 3 h for mitotic pole marker aurora A (1:1000 610939 mouse anti-IAK1, BD Biosciences) and phosphorylated histone H3 (1:1500 ab47297 anti-histone H3 pS10, Abcam) as a marker of mitotic cells in 1.5% FBS in PBS. Following primary antibody treatment, cells were incubated with secondary antibodies Alexa Fluor 488 goat antimouse and Alexa Fluor 555 goat antirabbit (1:1500, A11029 and A21429, respectively, Life Technologies) together with 1 μg/mL DAPI (D9542, Sigma) in 1.5% FBS in PBS. Image acquisition was performed at 10× using the GE INCELL 2200 High Content Imaging System (Cytiva) and analyzed using the InCell Investigator software. Mitotic cells were identified by high pHH3 staining and were scored as multipolar if they had more than two mitotic spindle poles. The percentage of multipolar mitoses was calculated by dividing the number of multipolar mitoses by the total of all visible mitoses in one well of a 96-well plate (n > 100 for each replicate, two replicates per concentration point).

In series [3] the test system is non-centrosome amplified DLD1 (4N) cells. The experiment in a line: Multipolar spindle assay (4N cell line). The settings on record: for % Multipolarity above baseline @ 15 mM (4N cells) / effect on multipolar mitoses (4N), in words: 15 μM; for % Multipolarity above baseline @ 15 mM (4N cells): supplementary CSV; for effect on multipolar mitoses (4N), in words: non-centrosome amplified DLD1 (4N) cell line; for % multipolarity above baseline @ 15 μM (4N cells): 4N DLD1 cells (Table 4). The class given is cell-based, human.
Excerpt: as §1, §2, §3

The target in series [4] is T1, recombinant full-length HSET. Description: ADP-Glo HSET assay (500 μM ATP). Type of series: biochemical. The settings on record: high ATP concentration of 500 μM; single determination or mean of two. How it is done: (§4) The HSET or Eg5 ATPase activity was measured using the ADP-Glo Kinase Assay kit (Promega, V9102). The assays were run using final concentrations of 5 nM full-length human N-terminal His-tag HSET or 4 nM GST-tagged Eg5 motor domain protein (Cytoskeleton, EG01) and an assay buffer containing 20 mM HEPES pH 6.8, 10 mM MgCl2, 0.25 mM EGTA, 0.4 mM Triton X-100, and 1 mM DTT. Preformed microtubules (Universal Biologicals Cambridge, bovine MT001-XL, or porcine MT002-XL), which were reconstituted in 15 mM PIPES pH 7, 1 mM MgCl2, and 20 μM paclitaxel, were present at a final assay concentration of 70 μg/mL. A reaction volume of 5 μL was used in Proxiplate 384 plus white assay plates (PerkinElmer, 6008280). To measure compound inhibition, 100 nL of compound dissolved in DMSO or DMSO alone was preincubated with the HSET and microtubules for 10 min before 3 μM Ultra-Pure ATP was added to start the ATPase reaction for the 3 μM ATP HSET assay. For the 500 μM ATP HSET assay, the addition of 500 μM Ultra-Pure ATP was used. For the Eg5 ATPase assay, 4.8 μM Ultra-Pure ATP was used. All reactions were incubated at 25 °C for 80 min and then stopped by the addition of 5 μL of the ADP-Glo reagent. 10 μL of Kinase Detection Reagent was then added after a further 45 min of incubation. The luminescence was read after 45 min on a PheraStar FSX plate reader (BMG Labtech). The data processing was performed using Dotmatics Studies software package. Percentage inhibition was determined based on normalization to high controls (0% inhibition, all reagents with 100 nL of DMSO alone) and low controls (100% inhibition […], without HSET). The IC50 values for each compound were determined using a four-parameter logistic curve fit of % inhibition versus concentration.

Series [5] has as its target T2, GST-tagged Eg5 motor domain (Homo sapiens, UniProt P52732).
T2 construct: 4 nM GST-tagged Eg5 motor domain protein (Cytoskeleton, EG01); purchased Cytoskeleton EG01
T2 sequence (P52732 18-359 limits assumed): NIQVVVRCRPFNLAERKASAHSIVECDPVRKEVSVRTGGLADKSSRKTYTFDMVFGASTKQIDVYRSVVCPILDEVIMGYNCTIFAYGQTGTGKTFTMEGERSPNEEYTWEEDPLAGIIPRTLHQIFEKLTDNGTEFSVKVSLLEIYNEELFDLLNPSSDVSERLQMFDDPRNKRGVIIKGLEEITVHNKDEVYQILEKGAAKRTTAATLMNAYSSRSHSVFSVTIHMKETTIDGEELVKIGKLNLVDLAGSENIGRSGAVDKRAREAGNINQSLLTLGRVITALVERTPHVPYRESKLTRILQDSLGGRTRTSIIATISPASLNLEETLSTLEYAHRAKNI
Description: ADP-Glo Eg5 assay (4.8 μM ATP). The settings on record: preformed microtubules, 4.8 μM ATP (Table 4). The class given is biochemical. The method, then: as §4

The subject of another series is DLD1 cells (4NCA and 4N). The class given is cell-based. Particulars: human. The method, then:
as §2, §3
3. […]

Where [6] appears, read: 15 μM, 4NCA DLD1 cells (Table 4).
The mark [7] stands for this setting: 15 µM, 4NCA cells, supplementary CSV.
Setting [8] is: LE = −1.4Log(IC50 [M])/number of non-hydrogen atoms (Table 1).
Where [9] appears, read: LLE = −Log(IC50 [M]) – cLogP (MoKa) (Table 1).
Setting [10] is: mean (±SD) n ≥ 3, >200 from a single determination (Table 1).

Each structure is given as a SMILES string.

Broadly, the IC50 is the concentration at which inhibition is half-maximal. For `CCOC(=O)c1sc(NC(=O)CCNC(=O)c2cccc(-c3noc(C)n3)c2)cc1C` [Compound 26, Ethyl 3-Methyl-5-(3-(3-(5-methyl-1,2,4-oxadiazol-3-yl)benzamido)propanamido)thiophene-2-carboxylate], the LE in series [1] (LE = −1.4Log(IC50 [M])/number of non-hydrogen atoms (Table 2)) amounted to 0.32. In addition, the LLE in series [1] (LLE = −Log(IC50 [M]) – cLogP (MoKa) (Table 2)) is reported as 3.7. Besides, the concentration for half-maximal inhibition (IC50) is 93 nM in series [1] (mean (±SD) n ≥ 3 (Table 4)); 93 nM in series [1] (mean (±SD) n ≥ 3, >200 from a single determination (Table 2)); 332 nM in series [4]; more than 200000 nM in series [5]. For the same compound, the “% multipolarity above baseline @ 15 μM (4NCA cells)” value in series [2] (setting [6]) and in series [2] (setting [7]) was 13% each time. Also, the “increase in mitotic spindle multipolarity (4NCA)” value in series [2] (15 μM) is approximately 10%. Further, the “% Multipolarity above baseline @ 15 mM (4N cells)” value in series [3] is 1%. In addition, in series [3], the “effect on multipolar mitoses (4N), in words” value was “no increases in multipolar mitoses”. Besides, the “% multipolarity above baseline @ 15 μM (4N cells)” value in series [3] was 1%.

As to `CCOC(=O)c1sc(NC(=O)CCNC(=O)c2cccc(-c3nnn(C)n3)c2)nc1C` [Compound 18, Ethyl 4-Methyl-2-(3-(3-(2-methyl-2H-tetrazol-5-yl)benzamido)propanamido)thiazole-5-carboxylate], the “ligand efficiency (LE)” value in series [1] is given as 0.34. Further, the “lipophilic ligand efficiency (LLE)” value in series [1] was found to be 5.4. Moreover, the LE in series [1] (setting [8]) is given as 0.34. In addition, in series [1] (setting [9]), the LLE is listed as 5.4. The IC50 in series [1] (mean (±SD) n ≥ 3 (Table 4)) was 27 nM; in series [1] (setting [10]), 27 nM; in series [4], 86 nM; in series [5], more than 200000 nM. For the same compound, the “% multipolarity above baseline @ 15 μM (4NCA cells)” value in series [2] (setting [6]) and in series [2] (setting [7]) was 11% in each case. Besides, the “increase in mitotic spindle multipolarity (4NCA)” value in series [2] (15 μM) is recorded as approximately 10%. Besides, the “% Multipolarity above baseline @ 15 mM (4N cells)” value in series [3] was found to be 0%. Also, in series [3], the “effect on multipolar mitoses (4N), in words” value was “no increases in multipolar mitoses”. Further, the “% multipolarity above baseline @ 15 μM (4N cells)” value in series [3] was 0%.

Turning to `CCCc1cc(C(=O)N[C@H](Cc2ccc(-c3cccc(OC(F)(F)F)c3)nc2)C(=O)N[C@@H]2CCNC2)sc1C` [Compound 1, 5-Methyl-6N-((R)-1-oxo-1-((R)-pyrrolidin-3-ylamino)-3-(6-(3-(trifluoromethoxy)phenyl)pyridin-3-yl)propan-2-yl)-4-propylthiophene-2-carboxamide, reference compound], the LE in series [1] (setting [8]) was 0.25. The LLE in series [1] (setting [9]) is 1.5. For the same compound, the 50% inhibitory concentration (IC50) in series [1] (mean (±SD) n ≥ 3 (Table 4)) was 171 nM; in series [1] (setting [10]) it was 171 nM; in series [4], 825 nM; in series [5] it was 35600 nM. Moreover, in the series on DLD1 cells (4NCA and 4N), the “concentration at which cellular toxicity observed” value is given as 6 µM.
